{"source": "patent US7166303B2", "about": "“Anesthetic formulations” (Maelor Pharmaceuticals Limited, priority 2000, dated 2007)", "key": {"physchem": {"assay": "physchem", "conditions": "water, thermodynamic from solid", "protocol": "Analyses were performed using the Perkin Elmer Lambda 5 UV/Vis Spectrophotometer.\nTwo sets of standards were prepared by serial dilution of: • 1. 10% poloxamer P407/1% Propofol solution in water. • 2. 1% Propofol solution in ethanol (EtOH).\nDilutions were performed with water and EtOH respectively. The standards were further diluted one hundred fold prior to measurement of their UV absorption spectra recorded."}, "[1]": {"conditions": "84% water/16% propylene glycol, ambient temperature"}}, "data": [{"smiles": "CC(C)c1cccc(C(C)C)c1O", "note": "[Propofol, 2,6-bis(1-methylethyl)phenol]", "values": [{"measurement": "solubility thermodynamic", "setting": "physchem", "result": "~1000", "unit": "µM"}, {"measurement": "increase of solubility of Propofol over water alone", "setting": "[1]", "result": "approximately 50%"}]}]}
